What all share (assay type): in vivo
The test system of series [1] is blood-sugar. Nature of the series: Blood-sugar lowering activity in starved female rats after oral administration. As to conditions: n.s. = not statistically significant; for change in vivo at 1 mg/kg / change in vivo at 5 mg/kg: Rattus norvegicus, po, read-out: Blood-sugar lowering activity, percent as compared with the controls; for change in vivo at 5 mg/kg: 5 mg/kg orally.

The nature of series [2]: Acute toxicity in female and male mice after oral administration of a single dose. The conditions noted are these: mouse, in vivo, observation time 14 days, read-out: Peroral Toxicity. How it is done:
(§1) The acute toxicity was determined in home-bred female and male mice having body weights of from 20 to 26 gm after oral administration (suspension in a 1% methyl cellulose solution) of a single dose. Observation time: 14 days.

The subject of series [3] is mice. Described as above. The conditions noted are these: observation time 14 days. How it is done: as §1

Like-named read-outs stand apart in the source and are kept apart here.

Take `O=C(Cc1ccc(C(=O)O)cc1)NC(c1ccc(Cl)cc1)c1ccccc1N1CCCCC1` (stereo not drawn) [AE, 4-[(α-(4-Chloro-phenyl)-2-piperidino-benzyl)-aminocarbonylmethyl]-benzoic acid]: the “Blood-sugar lowering activity, percent as compared with the controls” value in series [1] (1 mg/kg orally, 4 hours) is listed as “n.s”. For the same compound, the change in vivo at 1 mg/kg is -21% in series [1] (1 mg/kg orally, 1 hour); -20% in series [1] (1 mg/kg orally, 2 hours); -22% in series [1] (1 mg/kg orally, 3 hours). Besides, the change in vivo at 5 mg/kg is -30% in series [1] (1 hour), -28% in series [1] (2 hours), -39% in series [1] (3 hours) and -36% in series [1] (4 hours). Also, the LD50 at 336 h in series [2] is greater than 1000 mg/kg. Besides, the animals died in series [3] is listed as 0 out of 10.
As to `O=C(Cc1ccc(C(=O)O)cc1)NC(c1ccccc1F)c1ccccc1N1CCCCC1` (stereo not drawn) [AD, 4-[(α-(2-Fluoro-phenyl)-2-piperidino-benzyl)-aminocarbonylmethyl]-benzoic acid], the change in vivo at 1 mg/kg was -16% in series [1] (1 mg/kg orally, 1 hour); -20% in series [1] (1 mg/kg orally, 2 hours); -17% in series [1] (1 mg/kg orally, 3 hours); -14% in series [1] (1 mg/kg orally, 4 hours). Further, the change in vivo at 5 mg/kg was -28% in series [1] (1 hour), -32% in series [1] (2 hours), -27% in series [1] (3 hours) and -28% in series [1] (4 hours). In series [2], the LD50 at 336 h was greater than 1000 mg/kg. The animals died in series [3] is 0 out of 10.
As to `CCCC(NC(=O)Cc1ccc(C(=O)O)cc1)c1ccccc1N1CCCCC1` (racemic) [J, (±)-4-[(1-(2-Piperidino-phenyl)-1-butyl)-aminocarbonylmethyl]-benzoic acid], the change in vivo at 1 mg/kg in series [1] (1 mg/kg orally, 1 hour) is -38%; in series [1] (1 mg/kg orally, 2 hours) it was -32%; in series [1] (1 mg/kg orally, 3 hours), -34%; in series [1] (1 mg/kg orally, 4 hours) it was -29%. Further, the change in vivo at 5 mg/kg in series [1] (1 hour) is -44%; in series [1] (2 hours) it was -37%; in series [1] (3 hours) it was -42%; in series [1] (4 hours) it was -42%. In series [2], the LD50 at 336 h is greater than 2000 mg/kg. The animals died in series [3] is 0 out of 10.
With `O=C(Cc1ccc(C(=O)O)cc1)NC(c1ccc(F)cc1)c1ccccc1N1CCCCC1` (stereo not drawn) [AC, 4-[(α-(4-Fluoro-phenyl)-2-piperidino-benzyl)-aminocarbonylmethyl]-benzoic acid], the change in vivo at 5 mg/kg in series [1] (1 hour) was -36%; in series [1] (2 hours) it was -37%; in series [1] (3 hours), -36%; in series [1] (4 hours), -33%. Also, the LD50 at 336 h in series [2] is greater than 1000 mg/kg. In series [3], the animals died was 0 out of 10.
